The results in this text go back to US11780830B2, “Triazolone derivatives or salts thereof and pharmaceutical compositions comprising the same” (YUHAN CORPORATION, priority 2018, dated 2023).

Molecules are shown by their SMILES. Where a name gives a salt, the structure may show the parent alone.

What all share (type): biochemical
One assay has as its target T1, recombinant human VAP-1 (Homo sapiens, UniProt Q16853).
T1 construct: purchased R&D systems
T1 sequence (Q16853 1-763): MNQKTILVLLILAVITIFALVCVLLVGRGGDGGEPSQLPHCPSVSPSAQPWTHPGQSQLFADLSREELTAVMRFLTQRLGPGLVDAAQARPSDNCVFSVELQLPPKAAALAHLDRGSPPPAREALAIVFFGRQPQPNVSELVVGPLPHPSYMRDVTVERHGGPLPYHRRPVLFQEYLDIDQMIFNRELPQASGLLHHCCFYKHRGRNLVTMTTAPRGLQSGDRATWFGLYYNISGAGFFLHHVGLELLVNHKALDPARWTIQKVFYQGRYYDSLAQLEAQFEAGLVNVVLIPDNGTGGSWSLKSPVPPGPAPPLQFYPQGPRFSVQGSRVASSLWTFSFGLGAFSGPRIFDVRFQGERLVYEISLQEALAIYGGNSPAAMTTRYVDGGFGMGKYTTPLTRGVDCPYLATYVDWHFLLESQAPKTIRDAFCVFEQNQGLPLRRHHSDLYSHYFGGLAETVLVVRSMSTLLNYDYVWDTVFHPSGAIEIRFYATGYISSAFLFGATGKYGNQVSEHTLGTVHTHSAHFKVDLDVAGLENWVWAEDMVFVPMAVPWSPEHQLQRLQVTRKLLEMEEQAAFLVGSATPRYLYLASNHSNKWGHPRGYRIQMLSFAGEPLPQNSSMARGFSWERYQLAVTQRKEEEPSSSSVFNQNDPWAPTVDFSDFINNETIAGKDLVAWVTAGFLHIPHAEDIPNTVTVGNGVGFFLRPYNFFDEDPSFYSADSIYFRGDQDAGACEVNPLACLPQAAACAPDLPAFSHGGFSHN
The assay is described as follows: Activity on recombinant human VAP-1, HRP-coupled Amplex Red hydrogen peroxide assay. As to conditions: substrate 1 mM benzylamine; compound incubated with enzyme at 37° C. for 30 minutes; pH 7.4; read-out: Inhibitory Activity (IC50, nM) human VAP-1. The gist of the method:
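Dose-response IC50 determined from reduction in resorufin signal rate (544/590 nm, 1-2 h), with 30 min compound preincubation at 37 °C and 1 mM benzylamine as substrate.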

Assay [1] concerns the target T2, recombinant human MAO-A (monoamine oxidase-A) (Homo sapiens, UniProt P21397).
T2 construct: purchased Sigma-Aldrich
T2 sequence (P21397 1-527): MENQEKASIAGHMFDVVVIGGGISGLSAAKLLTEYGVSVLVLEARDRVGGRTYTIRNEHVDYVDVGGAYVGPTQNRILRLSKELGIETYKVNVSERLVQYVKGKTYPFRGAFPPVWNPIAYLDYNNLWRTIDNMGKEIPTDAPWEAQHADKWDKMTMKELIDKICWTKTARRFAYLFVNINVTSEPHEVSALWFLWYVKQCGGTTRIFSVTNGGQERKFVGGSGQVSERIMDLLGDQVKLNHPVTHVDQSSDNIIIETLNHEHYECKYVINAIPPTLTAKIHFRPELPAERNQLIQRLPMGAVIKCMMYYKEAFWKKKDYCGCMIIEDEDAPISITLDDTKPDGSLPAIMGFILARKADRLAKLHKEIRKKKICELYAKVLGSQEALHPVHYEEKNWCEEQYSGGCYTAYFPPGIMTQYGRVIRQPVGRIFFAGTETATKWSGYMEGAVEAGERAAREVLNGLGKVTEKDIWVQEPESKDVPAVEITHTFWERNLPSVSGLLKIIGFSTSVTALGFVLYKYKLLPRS
The assay is described as follows: Activity on recombinant human MAO-A, method similar to the VAP-1 assay. As to conditions: substrate 0.5 mM tyramine; read-out: Inhibitory Activity (IC50, nM) MAO-A. The gist of the method: (§1)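 Amplex Red/HRP coupled read-out of H2O2 with 0.5 mM tyramine for MAO-A or 1 mM benzylamine for MAO-B, following a 30-min compound–enzyme preincubation at 37° C. IC50 from percent inhibition of signal rate relative to uninhibited control.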

Assay [2] deals with T3, recombinant human MAO-B (monoamine oxidase-B) (Homo sapiens, UniProt P27338).
T3 construct: purchased Sigma-Aldrich
T3 sequence (P27338 1-520): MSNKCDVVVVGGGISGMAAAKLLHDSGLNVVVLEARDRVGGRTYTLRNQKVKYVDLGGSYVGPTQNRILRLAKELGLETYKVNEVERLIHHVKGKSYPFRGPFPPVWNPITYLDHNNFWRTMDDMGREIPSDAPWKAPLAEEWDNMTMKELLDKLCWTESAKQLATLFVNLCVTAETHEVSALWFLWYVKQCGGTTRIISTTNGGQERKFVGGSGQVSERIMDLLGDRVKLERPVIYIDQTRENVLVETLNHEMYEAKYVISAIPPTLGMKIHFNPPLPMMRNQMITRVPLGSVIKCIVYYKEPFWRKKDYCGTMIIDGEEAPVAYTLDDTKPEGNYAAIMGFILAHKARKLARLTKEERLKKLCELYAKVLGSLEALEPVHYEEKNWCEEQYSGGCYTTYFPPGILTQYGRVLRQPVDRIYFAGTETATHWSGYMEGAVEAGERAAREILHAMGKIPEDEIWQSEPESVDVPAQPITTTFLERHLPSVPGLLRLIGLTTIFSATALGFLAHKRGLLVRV
The assay can be described thus: Activity on recombinant human MAO-B, method similar to the VAP-1 assay. The note with it: substrate 1 mM benzylamine; read-out: Inhibitory Activity (IC50, nM) MAO-B. The gist of the method:
as §1

Assay [3] addresses T4, recombinant human DAO (diamine oxidase) (Homo sapiens, UniProt P19801).
T4 construct: purchased R&D systems
T4 sequence (P19801 20-751): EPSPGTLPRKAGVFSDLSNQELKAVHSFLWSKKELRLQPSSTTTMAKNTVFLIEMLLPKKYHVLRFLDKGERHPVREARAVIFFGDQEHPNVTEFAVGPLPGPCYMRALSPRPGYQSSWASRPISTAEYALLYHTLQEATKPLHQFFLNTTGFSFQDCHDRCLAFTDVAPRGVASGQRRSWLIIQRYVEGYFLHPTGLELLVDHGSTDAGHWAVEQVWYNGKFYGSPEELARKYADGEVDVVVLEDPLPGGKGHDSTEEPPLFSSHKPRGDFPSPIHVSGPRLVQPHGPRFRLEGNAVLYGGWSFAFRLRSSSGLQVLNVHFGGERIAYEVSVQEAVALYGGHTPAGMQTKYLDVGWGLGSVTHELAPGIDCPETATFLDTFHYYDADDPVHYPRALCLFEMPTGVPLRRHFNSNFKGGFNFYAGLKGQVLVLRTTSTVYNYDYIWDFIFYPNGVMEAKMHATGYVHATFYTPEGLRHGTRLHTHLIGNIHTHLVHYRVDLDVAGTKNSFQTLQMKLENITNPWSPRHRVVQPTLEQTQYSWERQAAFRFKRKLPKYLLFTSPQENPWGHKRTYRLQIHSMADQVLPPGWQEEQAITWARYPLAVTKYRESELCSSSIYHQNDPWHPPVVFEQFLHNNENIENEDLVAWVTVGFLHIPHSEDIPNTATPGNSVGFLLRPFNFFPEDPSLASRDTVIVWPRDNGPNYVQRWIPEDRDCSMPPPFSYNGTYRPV
The assay is described as follows: Activity on recombinant human DAO, method similar to the VAP-1 assay. The note with it: substrate 1 mM putrescine; read-out: Inhibitory Activity (IC50, nM) DAO. In outline:
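Inhibition of recombinant human diamine oxidase (DAO, R&D systems) was assessed by the same approach as the VAP-1 assay, using 1 mM putrescine as substrate. Hydrogen peroxide formed was detected through an HRP-coupled Amplex Red reaction yielding fluorescent resorufin, read at 544 nm excitation and 590 nm emission. IC50 values came from four-parameter logistic fitting in GraphPad Prism.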

By IC50 is commonly meant the concentration that inhibits the measured activity by half. Regarding `NC/C(=C\F)Cn1ncn(Cc2ccc(-c3ccc(OCC4CC4)nc3)s2)c1=O` [Example 174, 2-[(2E)-2-(aminomethyl)-3-fluoroprop-2-en-1-yl]-4-({5-[6-(cyclopropylmethoxy)pyridin-3-yl]thiophen-2-yl}methyl)-2,4-dihydro-3H-1,2,4-triazol-3-one], the IC50 on recombinant human VAP-1 was 7.7 nM; in assay [1], above 100000 nM; in assay [2], 570 nM; in assay [3] it was 1000 nM.

In the case of `NC/C(=C\F)Cn1ncn(Cc2ccc(C#Cc3ccc4c(n3)OCCN4)s2)c1=O` [Example 136, 2-[(E)-2-(aminomethyl)-3-fluoro-allyl]-4-[[5-[2-(2,3-dihydro-1H-pyrido[2,3-b][1,4]oxazin-6-yl)ethynyl]-2-thienyl]methyl]-1,2,4-triazol-3-one hydrochloride], the IC50 on recombinant human VAP-1 was found to be 1.5 nM; in assay [1], 20000 nM; in assay [2], 640 nM; in assay [3], 790 nM.

Turning to `NC/C(=C\F)Cn1ncn(Cc2ccc(-c3ccc(S(=O)(=O)N4CCOCC4)cc3)s2)c1=O` [Example 29, 2-[(2E)-2-(aminomethyl)-3-fluoroprop-2-en-1-yl]-4-(5-[4-(morpholin-4-ylsulfonyl)phenyl]thiophen-2-ylmethyl)-2,4-dihydro-3H-1,2,4-triazol-3-one hydrochloride], the IC50 at recombinant human VAP-1 is 1.4 nM; in assay [1], above 100000 nM; in assay [2], above 10000 nM; in assay [3], 150 nM.

As to `NC/C(=C\F)Cn1ncn(Cc2ccc(-c3ccc4nsnc4c3)s2)c1=O` [Example 192, 2-[(2E)-2-(aminomethyl)-3-fluoroprop-2-en-1-yl]-4-{[5-(2,1,3-benzothiadiazol-5-yl)thiophen-2-yl]methyl}-2,4-dihydro-3H-1,2,4-triazol-3-one], the IC50 at recombinant human VAP-1 is 1 nM; in assay [1], above 100000 nM; in assay [2] it was 120 nM; in assay [3], 310 nM.

Regarding `NC/C(=C\F)Cn1ncn(Cc2ccc(C#Cc3ccc4c(c3)CCC(=O)N4)s2)c1=O` [Example 133, 6-[2-[5-[[1-[(E)-2-(aminomethyl)-3-fluoro-allyl]-5-oxo-1,2,4-triazol-4-yl]methyl]-2-thienyl]ethynyl]-3,4-dihydro-1H-quinolin-2-one hydrochloride], the IC50 on recombinant human VAP-1 came out at 0.2 nM; in assay [1] it was 49000 nM; in assay [2], 180 nM; in assay [3] it was 530 nM.

Consider `Cn1cc(C#Cc2ccc(Cn3cnn(C/C(=C/F)CN)c3=O)s2)cn1` [Example 131, 2-[(2E)-2-(aminomethyl)-3-fluoroprop-2-en-1-yl]-4-(5-[(1-methyl-1H-pyrazol-4-yl)ethynyl]thiophen-2-ylmethyl)-2,4-dihydro-3H-1,2,4-triazol-3-one hydrochloride], for which the IC50 is 2.3 nM at recombinant human VAP-1, above 100000 nM in assay [1], 240 nM in assay [2] and 1300 nM in assay [3].

With `CNS(=O)(=O)c1cccc(-c2ccc(Cn3cnn(C/C(=C/F)CN)c3=O)s2)c1` [Example 8, 3-[5-(1-[(2E)-2-(aminomethyl)-3-fluoroprop-2-en-1-yl]-5-oxo-1,5-dihydro-4H-1,2,4-triazol-4-ylmethyl)thiophen-2-yl]-N-methylbenzenesulfonamide hydrochloride], the IC50 was 1.2 nM at recombinant human VAP-1, above 100000 nM in assay [1], 210 nM in assay [2] and 520 nM in assay [3].

With `NC/C(=C\F)Cn1ncn(Cc2ccc(-c3ccc4c(c3)SCC(=O)N4)s2)c1=O` [Example 85, 7-[5-[[1-[(E)-2-(aminomethyl)-3-fluoro-allyl]-5-oxo-1,2,4-triazol-4-yl]methyl]-2-thienyl]-4H-1,4-benzothiazin-3-one hydrochloride], the IC50 on recombinant human VAP-1 is 0.3 nM; in assay [1], above 100000 nM; in assay [2], 1700 nM; in assay [3], 320 nM.

With `NC/C(=C\F)Cn1ncn(Cc2ccc(-c3cccc(N4CCNCC4)c3)s2)c1=O` [Example 23, 2-[(2E)-2-(aminomethyl)-3-fluoroprop-2-en-1-yl]-4-(5-[3-(piperazin-1-yl)phenyl]thiophen-2-ylmethyl)-2,4-dihydro-3H-1,2,4-triazol-3-one hydrochloride], the IC50 at recombinant human VAP-1 is 2.5 nM; in assay [1], above 100000 nM; in assay [2], 300 nM; in assay [3], 3200 nM.

Turning to `CCS(=O)(=O)c1ccc(-c2ccc(Cn3cnn(C/C(=C/F)CN)c3=O)s2)cc1` [Example 196, 2-[(2E)-2-(aminomethyl)-3-fluoroprop-2-en-1-yl]-4-({5-[4-(ethylsulfonyl)phenyl]thiophen-2-yl}methyl)-2,4-dihydro-3H-1,2,4-triazol-3-one], the IC50 is 2.3 nM at recombinant human VAP-1, above 100000 nM in assay [1], 4700 nM in assay [2] and 230 nM in assay [3].
